Converted amounts (≈) assume the structure as drawn.
Columns and labels:
[1] = test system: Candida krusei ATCC 14243; experiment: Broth microdilution MIC/MFC; format: cell-based; conditions: Pichia kudriavzevii, ATCC14243, read-out: MIC
Method in brief: (§1)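 Preliminary agar screening used 2 mg/mL compound with incubation at 37°C for 24 h (bacteria) or 30°C for 48 h (fungi). Subsequent MIC determination: two-fold broth microdilution, 1000 to 0.488 µg/ml final.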

[2] = test system: Candida glabrata ATCC 90030; experiment: Broth microdilution MIC/MFC; format: cell-based; conditions: Nakaseomyces glabratus, ATCC90030, read-out: MIC
Method in brief: as §1

[3] = test system: Candida albicans ATCC 2091; experiment: Broth microdilution MIC/MFC; format: cell-based; conditions: ATCC2091, read-out: MIC
Method in brief: as §1

[4] = test system: Candida albicans ATCC 10231; experiment: Broth microdilution MIC/MFC; format: cell-based; conditions: for MIC: ATCC10231, read-out: MIC
Method in brief: as §1

[5] = test system: Candida parapsilosis ATCC 22019; experiment: Broth microdilution MIC/MFC; format: cell-based; conditions: Lodderomyces parapsilosis, ATCC22019, read-out: MIC
Method in brief: as §1

[6] = test system: Enterococcus faecalis ATCC 29212; experiment: Broth microdilution MIC/MBC; format: cell-based; conditions: for MBC: ATCC29212, read-out: MBC; for MIC: ATCC29212, read-out: MIC
Method in brief: as §1

[7] = test system: Escherichia coli ATCC 25922; experiment: Broth microdilution MIC/MBC; format: cell-based; conditions: ATCC25922
Method in brief: as §1

[8] = test system: Klebsiella pneumoniae ATCC 13883; experiment: Broth microdilution MIC/MBC; format: cell-based; conditions: ATCC13883
Method in brief: as §1

[9] = test system: Bordetella bronchiseptica ATCC 4617; experiment: Broth microdilution MIC/MBC; format: cell-based
Method in brief: as §1

[10] = test system: Bacillus cereus ATCC 10876; experiment: Broth microdilution MIC/MBC; format: cell-based; conditions: for MBC: ATCC10876; for MIC: ATCC10876, read-out: MIC
Method in brief: as §1

[11] = test system: reference Gram-positive bacteria; experiment: Broth microdilution, summary over the Gram-positive panel; format: cell-based; conditions: read-out: MIC
Text: (§2) In vitro antimicrobial activity assays - Methodology
(§3) The examined compounds 1 - 24 were screened in vitro for antibacterial and antifungal activities using the broth microdilution method according to procedure reported earlier by our research group and European Committee on Antimicrobial Susceptibility Testing (EUCAST) and Clinical and Laboratory Standards Institute (CLSI) guidelines against a panel of reference and clinical or saprophytic strains of microorganisms, in-cluding Gram-positive bacteria, Staphylococcus aureus ATCC 43300 (Methicillin Resistant S. aureus – MRSA), Staphylococcus aureus ATCC 29213 (Methicillin Susceptible S. aureus – MSSA), Staphylococcus epidermidis ATCC 12228, Enterococcus faecalis ATCC 29212, Micro-coccus luteus ATCC 10240, Bacillus subtilis ATCC 6633 and Bacillus cereus ATCC 10876), Gram-negative bacteria (Bordetella bronchiseptica ATCC 4617, Escherichia coli ATCC 25922, Klebsiella pneumoniae ATCC 13883, Proteus mirabilis ATCC 12453, Salmonella typhimurium ATCC 14028 and Pseudomonas aeruginosa ATCC 9027) and fungi belonging to yeasts (Can-dida albicans ATCC 10231, Candida albicans ATCC 2091, Candida parapsilosis ATCC 22019, Candida glabrata ATCC 90030 and Candida krusei ATCC 14243). The microorganisms be-longing to ATCC came from American Type Culture Collection, routinely used for the evaluation of antimicrobials. […]
Samples containing examined compounds were dissolved in dimethyl sulfoxide (DMSO). […]
(§4) Subsequently, the MIC (Minimal Inhibitory Concentration) of the compounds was ex-amined by the microdilution broth method, using their two-fold dilutions in Mueller- […]
(§5) Hinton broth or (for bacteria) and RPMI 1640 broth with MOPS (for fungi) prepared in 96-well polystyrene plates. Final concentrations of the compounds ranged from 1000 to 0.488 µg/ml. Microbial suspensions were prepared in 0.85% NaCl with an optical density of 0.5 McFarland standard. Next each bacterial or fungal suspension was added per each well containing broth and various concentrations of the examined compounds. After incuba-

[12] = test system: Pseudomonas aeruginosa ATCC 9027; experiment: Broth microdilution MIC/MBC; format: cell-based; conditions: ATCC9027
Method in brief: as §1

[13] = test system: Salmonella typhimurium ATCC 14028; experiment: Broth microdilution MIC/MBC; format: cell-based; conditions: Salmonella enterica
Method in brief: as §1

[14] = test system: Proteus mirabilis ATCC 12453; experiment: Broth microdilution MIC/MBC; format: cell-based; conditions: ATCC12453
Method in brief: as §1

[15] = test system: Staphylococcus aureus ATCC 43300; experiment: Broth microdilution MIC/MBC; format: cell-based; conditions: Staphylococcus aureus ATCC 43300 (MRSA)
Method in brief: as §1

[16] = test system: Staphylococcus aureus ATCC 29213; experiment: Broth microdilution MIC/MBC; format: cell-based; conditions: for MBC / MIC: ATCC29213
Method in brief: as §1

[17] = test system: Staphylococcus epidermidis ATCC 12228; experiment: Broth microdilution MIC/MBC; format: cell-based; conditions: for MBC: ATCC12228; for MIC: ATCC12228, read-out: MIC
Method in brief: as §1

[18] = test system: Micrococcus luteus ATCC 10240; experiment: Broth microdilution MIC/MBC; format: cell-based; conditions: for MBC: ATCC10240; for MIC: ATCC10240, read-out: MIC
Method in brief: as §1

[19] = test system: Bacillus subtilis ATCC 6633; experiment: Broth microdilution MIC/MBC; format: cell-based; conditions: for MBC: ATCC6633; for MIC: ATCC6633, read-out: MIC
Method in brief: as §1

Gram-negative bacteria = experiment: Broth microdilution, summary over the Gram-negative panel; format: cell-based
Text: as §2
as §3, with “antimicrobials. All the used microbial cultures were first subcultured on nu-trient agar or Sabouraud agar at 35°C for 18-24 h or 30°C for 24-48 h for bacteria and fungi,” for “antimicrobials.”
The surface of Mueller-Hinton agar (for bacteria) and RPMI 1640 with MOPS (for fungi) were inoculated with the suspensions of bacterial or fungal species. Microbial suspensions were prepared in sterile saline with an optical density of McFarland standard scale 0.5.
Samples containing examined compounds were dissolved in dimethyl sulfoxide (DMSO).
Furthermore, bacterial and fungal suspensions were put onto Petri dishes with solid me-dia containing 2 mg/mL of the tested compounds followed incubation at 37°C for 24h and 30°C for 48h for bacteria and fungi, respectively. The inhibition of microbial growth was judged by comparison with a control culture prepared without any sample tested. Ciprof-loxacin, vancomycin, nitrofurantoin, cefuroxime, ampicillin or nystatin (Sigma) were used as a reference antibacterial or antifungal compounds, respectively.
as §4, §5

SMILES	MIC [1]	MIC [2]	MIC [3]	MIC [4]	MIC [5]	MIC [6]	MIC [7]	MIC [8]	MIC ([9]; ATCC4617)	MBC/MIC [10]	MBC [10]	MIC [10]	melting point	MIC [12]	MIC [13]	MIC [14]	MIC [15]	MIC [16]	MIC [17]	MBC/MIC [18]	other results
COc1ccc(/C=N/NC(=O)c2ccc(O)cc2O)cc1Br [Compound 10, N-[(3-bromo-4-methoxyphenyl)methylidene]-2,4-dihydroxybenzohydrazide]	> 1000 µg/mL	> 1000 µg/mL	> 1000 µg/mL	> 1000 µg/mL	> 1000 µg/mL	250 µg/mL (≈ 685 µM)	> 1000 µg/mL	> 1000 µg/mL	> 1000 µg/mL	2	250 µg/mL (≈ 685 µM)	125 µg/mL (≈ 342 µM)	260 °C	> 1000 µg/mL	> 1000 µg/mL	> 1000 µg/mL	31.2 µg/mL (≈ 85.6 µM)	15.6 µg/mL (≈ 42.8 µM)	1000 µg/mL (≈ 2740 µM)	> 4	MBC/MIC [6]: 4; MBC [6]: 1000 µg/mL (≈ 2740 µM); MIC [11]: 15.6 to 1000 µg/mL (≈ 42.8 to 2740 µM); MBC [15]: 500 µg/mL (≈ 1370 µM); MBC/MIC [15]: 16; MBC/MIC [16]: 16; MBC [16]: 250 µg/mL (≈ 685 µM); MBC/MIC [17]: > 1; MBC [17]: 1000 µg/mL (≈ 2740 µM); MBC [18]: > 1000 µg/mL; MIC [18]: 250 µg/mL (≈ 685 µM); MBC/MIC [19]: > 4; MBC [19]: > 1000 µg/mL; MIC [19]: 250 µg/mL (≈ 685 µM)
O=C(N/N=C/c1ccc(O)c(Br)c1)c1ccc(O)cc1O [Compound 11, N-[(3-bromo-4-hydroxyphenyl)methylidene]-2,4-dihydroxybenzohydrazide]	> 1000 µg/mL	> 1000 µg/mL	> 1000 µg/mL	> 1000 µg/mL	> 1000 µg/mL	500 µg/mL (≈ 1420 µM)	> 1000 µg/mL	> 1000 µg/mL	> 1000 µg/mL	> 4	> 1000 µg/mL	250 µg/mL (≈ 712 µM)	232 °C	> 1000 µg/mL	> 1000 µg/mL	> 1000 µg/mL	500 µg/mL (≈ 1420 µM)	250 µg/mL (≈ 712 µM)	500 µg/mL (≈ 1420 µM)	> 8	MBC/MIC [6]: > 2; MBC [6]: > 1000 µg/mL; MIC [11]: 15.6 to 1000 µg/mL (≈ 44.5 to 2850 µM); MBC [15]: 1000 µg/mL (≈ 2850 µM); MBC/MIC [15]: 2; MBC/MIC [16]: > 4; MBC [16]: > 1000 µg/mL; MBC/MIC [17]: 2; MBC [17]: 1000 µg/mL (≈ 2850 µM); MBC [18]: > 1000 µg/mL; MIC [18]: 125 µg/mL (≈ 356 µM); MBC/MIC [19]: > 2; MBC [19]: > 1000 µg/mL; MIC [19]: 500 µg/mL (≈ 1420 µM)
CCOc1cc(/C=N/NC(=O)c2ccc(O)cc2O)ccc1OC [Compound 14, N-[(3-ethoxy-4-methoxyphenyl)methylidene]-2,4-dihydroxybenzohydrazide]	> 1000 µg/mL	> 1000 µg/mL	> 1000 µg/mL	500 µg/mL (≈ 1510 µM)	> 1000 µg/mL	> 1000 µg/mL	> 1000 µg/mL	> 1000 µg/mL	1000 µg/mL (≈ 3030 µM)	> 2	> 1000 µg/mL	500 µg/mL (≈ 1510 µM)	230 °C	> 1000 µg/mL	> 1000 µg/mL	> 1000 µg/mL	> 1000 µg/mL	> 1000 µg/mL	> 1000 µg/mL	> 8	MFC/MIC [4]: > 2; MFC ([4]; ATCC10231, read-out: MFC): > 1000 µg/mL; MBC/MIC [9]: 1; MBC ([9]; ATCC4617): 1000 µg/mL (≈ 3030 µM); MBC [18]: > 1000 µg/mL; MIC [18]: 125 µg/mL (≈ 378 µM); MIC [19]: > 1000 µg/mL; MBC (Gram-negative bacteria): > 1000 µg/mL; MIC (Gram-negative bacteria): 500 to 1000 µg/mL (≈ 1510 to 3030 µM)

Reference: publication PMC10743905, “Design, Synthesis, and In Vitro and In Vivo Bioactivity Studies of Hydrazide–Hydrazones of 2,4-Dihydroxybenzoic Acid” (International Journal of Molecular Sciences, 2023)
